In patent US4469701A, “Pyrrolid-3-en-2-ones and pharmaceutical methods of use thereof” (Stauffer Chemical Company, priority 1983, dated 1984):

How the values were obtained:
glucose-loaded mice = test: Hypoglycemic, glucose-loaded mice; assay type: in vivo, mouse; settings: for H = Hypoglycemic: percent decrease in serum glucose concentration: glucose loaded mice, 100 mg/kg oral dose, significance >20; for ED100: Mus musculus, po, 1 h, p.o., reference compounds, read-out: ED-100, hypoglycemic, mice
Description: Reduction in blood glucose concentration by more than 20% (>20) in fasted, glucose-loaded (1 gm/kg) mice one hour after dosing, p.o., indicates activity (test compound administered at same time as glucose load).
^5 H = Hypoglycemic. Percent decrease in serum glucose concentration
in glucose loaded mice hr. following a 100 mg/kg oral dose.

[1] = Anticholinergic properties (overall statement); settings: in vivo
rats [2] = test: Antiulcer: stress induced gastric ulcers in rats; assay type: in vivo, rat; settings: for inhibition in vivo at 50 mg/kg: 4 hr. following a 50 mg/kg oral dose in rats, significance >60, read-out: U = Antiulcerative: percent inhibition of stress ulcers
Description: Fasted rats were dosed, p.o., 30 minutes before immobilization in wire mesh and partial immersion in water for 4 hours. Inhibition of the resulting stress induced gastric ulcers by more than 60% (>60) indicates activity.
^6 U = Antiulcerative. Percent inhibition of stress ulcers 4 hr.
following a 50 mg/kg oral dose in rats.

[3] = system: spontaneously hypertensive rats (SHR); test: Antihypertensive: blood pressure (tail cuff) in spontaneously hypertensive rats (SHR); assay type: in vivo, rat; settings: for inhibition in vivo at 100 mg/kg: 6 hr. after a 100 mg/kg oral dose, significance >10, read-out: Antihypertensive: percent decrease in systolic blood pressure in spontaneously hypertensive rats
Description: Blood pressure was measured indirectly (tail cuff) in unanesthetized, unheated spontaneously hypertensive rats (SHR) before and 2, 4, and 6 hours after p.o. dosing. Reduction in mean pressure by more than 10% (>10) at any two consecutive measurement times after dosing indicates antihypertensive activity.

rats [4] = test: Bradycardia: heart rate by EKG in rats; assay type: in vivo, rat; settings: Rattus norvegicus, 0.75 h; 45 min. after a 5 mg/kg oral dose in rats; significance >10; read-out: B = Bradycardiac: percent decrease in heart rate
Description: […] Decrease in heart rate by more than 10% (>10) is considered a bradycardic effect.
Percent decrease in heart rate 45 min. after a 5
mg/kg oral dose in rats.

mice [5] = test: Antiarrhythmic: chloroform-induced cardiac arrhythmia in mice; assay type: in vivo, mouse; settings: for A = Antiarrythmic: mouse hearts fibrillating (of 3): 15 min. after a 200 mg/kg intraperitoneal dose, significance <2
Description: ^2 A = Antiarrythmic. Less than 2/3 mouse hearts fibrillating 15 min.

mice [6] = test: Acute toxicity / autonomic effects observation; settings: mouse, in vivo
Description: Mice were dosed at 300 mg/kg, per oral (p.o.) and […], interperitoneal (i.p.) for observation of any acute toxic symptoms or autonomic effects during the subsequent 72 hours. If none were noted, pharmacological evaluation proceeded employing doses and concentrations for each test based on appropriate multiples of doses required by suitable reference compounds. If acute toxicity was observed initially, the minimal toxic dose was determined and pharmacological screening doses were reduced proportionately.

[7] = Central nervous system (CNS) depression/effects; settings: in vivo
[8] = system: hypercholesterolemic mice; test: Hypocholesterolemic: serum cholesterol in hypercholesterolemic mice; assay type: in vivo, mouse; settings: hypercholesterolemic mice; for inhibition in vivo at 200 mg/kg / ED100: Mus musculus; for inhibition in vivo at 200 mg/kg: 2 oral doses of 200 mg/kg 20 hr. apart, significance >20, read-out: C = Hypocholesterolemic: percent decrease in serum cholesterol; for ED100: po, read-out: ED-100, hypocholesterolemic
Description: Mice made hypercholesterolemic by being fed a high cholesterol-cholic acid diet for 7 days were dosed on the sixth and seventh days, p.o. After fasting overnight, reduction in serum cholesterol concentration by more than 15% (>15) from hypercholesterolemic control mice indicates activity.
^4 C = Hypocholesterolemic. Percent decrease in serum cholesterol in
hypercholesterolemic mice given 2 oral doses of 200 mg/kg drug candidate

[9] = system: hypercholesterolemic mice; test: HP-betalipoprotein: serum heparin precipitating lipoprotein (HPL); assay type: in vivo, mouse; settings: hypercholesterolemic mice; for ED100: Mus musculus, po, read-out: ED-100, HP-betalipoprotein
From the text: Reduction of serum heparin precipitating lipoprotein (HPL) concentrations (corresponding to low density lipoprotein and very low density lipoprotein fractions) in the same hypercholesterolemic mice from Test 6 above by more than 20% (>20) from control animals indicates activity.

mice [10] = test: Pupil dilation in mice; assay type: in vivo, mouse; settings: i.p.; for Reference dose, pupil dilation: reference compounds and the doses thereof
Description: If the pupil diameter of mice exceeds 1.0 mm (>1) in bright light 30 minutes after dosing, i.p., ganglionic blockage or anti-cholinergic activity is indicated in the absence of adrenergic action. The following are reference compounds and the doses thereof.

[11] = Overall pharmacological profile; settings: in vivo
mice [12] = test: Peripheral anticholinergic: lacrimation and salivation in mice; assay type: in vivo; settings: Mus musculus, ip, read-out: ED-100, peripheral anticholinergic
mice [13] = test: Central anticholinergic: oxotremorine tremors in mice; settings: Mus musculus, ip, 1 h, read-out: ED-100, central anticholinergic
rats [14] = test: Antiedema: carrageenan paw edema in rats; assay type: in vivo; settings: Rattus norvegicus, po, 3 h, read-out: ED-100, antiedema
Description: Rats are dosed p.o. one hour before intraplantar injection of carrigeenan (0.1 ml, 1% susp.). Inhibition of paw edema by more than 30% (>30) 3 hours after carriegeenan injection indicates acute anti-edema activity.

starch loaded mice = test: Carbohydrate (CHO) efficiency/hypoglycemic, starch loaded mice; assay type: in vivo, mouse; settings: for ED100: Mus musculus, 1 h, oral, reference compounds, read-out: ED-100, CHO efficiency/hypoglycemic
[15] = p.o., rats, reference compounds

## CC1(C)CCCC(C)(C)N1CC1=CC(=O)N(c2cccc(C(F)(F)F)c2)C1 [Compound 1]
glucose-loaded mice
  H = Hypoglycemic: percent decrease in serum glucose concentration: 14%
[1]
  Anticholinergic properties/effects: absence of notable
Rats [2]; Rattus norvegicus
  inhibition in vivo at 50 mg/kg: 75%
[3]; Rattus norvegicus
  inhibition in vivo at 100 mg/kg: 19%
Rats [4]
  inhibition in vivo at 5 mg/kg: 14%
Mice [5]
  A = Antiarrythmic: mouse hearts fibrillating (of 3): 0
Mice [6]
  Acute toxicity / toxic effects: apparent lack of acute toxicity
[7]
  CNS depression / CNS effects: absence of notable central nervous system (CNS) depression
[8]
  inhibition in vivo at 200 mg/kg: 5%

## Cc1cccc(N2CC(CN3C(C)(C)CCCC3(C)C)=CC2=O)c1 [Compound 4]
[9]; 400 mg/kg, p.o.
  HPL/cholesterol ratio: marked reduction
Rats [2]; Rattus norvegicus
  inhibition in vivo at 50 mg/kg: 75%
[3]; Rattus norvegicus
  inhibition in vivo at 100 mg/kg: 23%
[3]; p.o.
  Antihypertensive activity, onset / comparison in words: generally comparable to that of Compound 3
  Dose at which antihypertensive effects were decreasing: 10 mg/kg
Rats [4]
  inhibition in vivo at 5 mg/kg: 19%
Mice [5]
  A = Antiarrythmic: mouse hearts fibrillating (of 3): 2
Mice [5]; i.p., mice, chloroform arrhythmia
  Dose with borderline antiarrhythmic result: 100 mg/kg
[8]
  inhibition in vivo at 200 mg/kg: 25%
Mice [10]; 50 mg/kg
  Pupil dilation: significantly dilated

## CC1(C)CCCC(C)(C)N1CC1=CC(=O)N(c2ccccc2)C1 [Compound 6]
glucose-loaded mice
  H = Hypoglycemic: percent decrease in serum glucose concentration: 29%
Rats [2]; Rattus norvegicus
  inhibition in vivo at 50 mg/kg: 75%
[3]; Rattus norvegicus
  inhibition in vivo at 100 mg/kg: 18%
Rats [4]
  inhibition in vivo at 5 mg/kg: 20%
Mice [5]
  A = Antiarrythmic: mouse hearts fibrillating (of 3): 3
Mice [6]
  Autonomic effect / autonomic inhibition: little evidence of autonomic effect
[8]
  inhibition in vivo at 200 mg/kg: 12%

## CSc1ccc(N2CC(CN3C(C)(C)CCCC3(C)C)=CC2=O)cc1 [Compound 8]
Rats [2]; Rattus norvegicus
  inhibition in vivo at 50 mg/kg: 50%
[3]; Rattus norvegicus
  inhibition in vivo at 100 mg/kg: 25%
[11]
  Profile (comparison with another compound): generally similar to that of Compound 6
Rats [4]
  inhibition in vivo at 5 mg/kg: 18%
Mice [5]
  A = Antiarrythmic: mouse hearts fibrillating (of 3): 3
[8]
  inhibition in vivo at 200 mg/kg: 0%

## CC1(C)CCCC(C)(C)N1CC1=CC(=O)N(c2ccccc2Cl)C1 [Compound 9]
glucose-loaded mice
  H = Hypoglycemic: percent decrease in serum glucose concentration: 27%
[1]
  Anticholinergic properties/effects: not likely anticholinergic in nature
Rats [2]; Rattus norvegicus
  inhibition in vivo at 50 mg/kg: 100%
[3]; Rattus norvegicus
  inhibition in vivo at 100 mg/kg: 31%
Rats [4]
  inhibition in vivo at 5 mg/kg: 18%
Mice [5]
  A = Antiarrythmic: mouse hearts fibrillating (of 3): 0
[8]
  inhibition in vivo at 200 mg/kg: 0%
Mice [10]; 25 mg/kg
  Ganglionic blockade as cause of pupillary dilation: does not appear to reflect ganglionic blockade
  Pupil dilation: Pupillary dilation was again noted

## CC1(C)CCCC(C)(C)N1CC1=CC(=O)N(c2cccc(Cl)c2)C1 [Compound 13]
[1]
  Anticholinergic properties/effects: absence
Rats [2]; Rattus norvegicus
  inhibition in vivo at 50 mg/kg: 88%
[3]; Rattus norvegicus
  inhibition in vivo at 100 mg/kg: 4%
Rats [4]
  inhibition in vivo at 5 mg/kg: 1%
Mice [5]
  A = Antiarrythmic: mouse hearts fibrillating (of 3): 3
Mice [6]
  Acute toxicity / toxic effects: absence
[7]
  CNS depression / CNS effects: absence of CNS
[8]
  inhibition in vivo at 200 mg/kg: 13%

## CC1(C)CCCC(C)(C)N1CC1=CC(=O)N(c2cccc(C#N)c2)C1 [Compound 15]
[1]
  Anticholinergic properties/effects: absence
Rats [2]; Rattus norvegicus
  inhibition in vivo at 50 mg/kg: 88%
Rats [2]; rat, in vivo
  Antiulcer effect, in words: unusual and strong activity
[3]; Rattus norvegicus
  inhibition in vivo at 100 mg/kg: 19%
Rats [4]
  inhibition in vivo at 5 mg/kg: 0%
Mice [5]
  A = Antiarrythmic: mouse hearts fibrillating (of 3): 3
Mice [6]
  Acute toxicity / toxic effects: absence
[7]
  CNS depression / CNS effects: absence of CNS depression
[8]
  inhibition in vivo at 200 mg/kg: 15%

## c1cc(N2CCCCC2)ccc1OC12CC3CC(CC(C3)C1)C2 [Compound U-41792, reference compound]
[9]; reference compounds
  ED-100, HP-betalipoprotein: 200 mg/kg
[8]; p.o., reference compounds
  ED-100, hypocholesterolemic: 200 mg/kg

## N[C@H](Cc1cc(I)c(Oc2cc(I)c(O)c(I)c2)c(I)c1)C(=O)O [D-thyroxine, reference compound]
[9]; reference compounds
  ED100: 10 mg/kg
[8]; reference compounds
  ED100: 10 mg/kg

## CN(C)CCC=C1c2ccccc2CCc2ccccc21 [amitriptyline]
Mice [12]; mice, reference compounds
  ED100: 25 mg/kg
Mice [13]
  ED100: 10 mg/kg

## CC(=O)Oc1ccccc1C(=O)O [aspirin]
Rats [14]
  ED100: 150 mg/kg

## CN1[C@@H]2CC[C@H]1C[C@@H](OC(=O)C(CO)c1ccccc1)C2 (stereo partly shown) [atropine, reference compound]
Rats [2]; Rattus norvegicus, po, read-out: ED-100, antiulcer
  ED100: 5 mg/kg
Mice [12]
  ED100: 0.25 mg/kg
Mice [13]
  ED100: 2 mg/kg
Mice [10]
  Reference dose, pupil dilation: 0.25 mg/kg

## CC(C)(Oc1ccc(CCNC(=O)c2ccc(Cl)cc2)cc1)C(=O)O [bezafibrate, reference compound]
[9]; reference compounds
  ED100: 200 mg/kg
[8]; reference compounds
  ED100: 200 mg/kg

## CN1CCN(C2=Nc3cc(Cl)ccc3Nc3ccccc32)CC1 [clozapine]
Mice [12]; mice, reference compounds
  ED100: 10 mg/kg
Mice [13]
  ED100: 10 mg/kg

## CC/C(=C(/CC)c1ccc(O)cc1)c1ccc(O)cc1 [diethylstilbestrol, reference compound]
[9]; reference compounds
  ED100: 200 mg/kg
[8]; reference compounds
  ED100: 200 mg/kg

## O=C(O)c1cc(-c2ccc(F)cc2F)ccc1O [diflunisal]
Rats [14]; [15]
  ED100: 25 mg/kg

## COc1ccc(Cl)cc1C(=O)NCCc1ccc(S(=O)(=O)NC(=O)NC2CCCCC2)cc1 [glibenclamide, reference compound]
glucose-loaded mice; glucose-loaded mice
  ED100: 1 mg/kg
Starch loaded mice
  ED100: 1 mg/kg

## C[C@]12CCC(=O)C=C1CC[C@@H]1[C@@H]2[C@@H](O)C[C@@]2(C)[C@H]1CC[C@]2(O)C(=O)CO [hydrocortisone]
Rats [14]
  ED100: 25 mg/kg

## CC(C)Cc1ccc(C(C)C(=O)O)cc1 (stereo not shown) [ibuprofen]
Rats [14]; [15]
  ED100: 25 mg/kg

## COc1ccc2c(c1)c(CC(=O)O)c(C)n2C(=O)c1ccc(Cl)cc1 [indomethacin]
Rats [14]
  ED100: 4 mg/kg

## CC(C(=O)O)c1cccc(C(=O)c2ccccc2)c1 (stereo not shown) [ketoprofen]
Rats [14]
  ED100: 5 mg/kg

## CNC1(C)C2CCC(C2)C1(C)C (stereo not shown) [mecamylamine, reference compound]
[3]; Rattus norvegicus, po, SHR, reference compounds, read-out: ED-100, antihypertensive
  ED100: 10 mg/kg
Mice [10]
  Reference dose, pupil dilation: 2.5 mg/kg

## COc1ccc2cc([C@H](C)C(=O)O)ccc2c1 [naproxen]
Rats [14]; [15]
  ED100: 5 mg/kg

## [H]/N=C(/N)N/C(=N/[H])NCCc1ccccc1 [phenformin, reference compound]
glucose-loaded mice; glucose-loaded mice
  ED100: 100 mg/kg
Starch loaded mice
  ED100: 100 mg/kg

## CCCCC1C(=O)N(c2ccccc2)N(c2ccccc2)C1=O [phenylbutazone]
Rats [14]; [15]
  ED100: 50 mg/kg

## CCCCNC(=O)NS(=O)(=O)c1ccc(C)cc1 [tolbutamide, reference compound]
glucose-loaded mice; glucose-loaded mice
  ED100: 50 mg/kg
Starch loaded mice
  ED100: 50 mg/kg

## OC(CCN1CCCCC1)(c1ccccc1)C1CCCCC1 (stereo not shown) [trihexyphenidyl]
Mice [12]; mice, reference compounds
  ED100: 2.5 mg/kg
Mice [13]
  ED100: 10 mg/kg

## insulin
glucose-loaded mice; s.c., glucose-loaded mice
  ED-100, hypoglycemic, mice (insulin): 0.25 U
Starch loaded mice; subcutaneous (s.c.)
  ED-100, CHO efficiency/hypoglycemic (insulin): 0.25 U
